Measurements from patent US20240209028A1, “CNP COMPOUNDS” (priority 2022, published 2024).
Starred links: 1 amine or outer side, 2 acyl side, 3 side chain; linkers in the order of their positions; H or OH if unused. Positions of bridges follow the written chain, without caps; N, C: chain ends. Residues, ends and D or L forms follow the SMILES beside them. *: point of attachment. C18 diacid = O=C(O)CCCCCCCCCCCCCCCCC(=O)*; γGlu = O=C(O)[C@H](CCC(=O)[*:2])N[*:1]; AEEA = NCCOCCOCC(=O)O

Target: T1, human natriuretic peptide receptor 2 (hNPR2) (Homo sapiens, UniProt P20594)
T1 construct: expressed in transfected cells; host or cells: HEK293 (ATCC CRL-1573), clone 35, co-transfected with pGloSensor-42F
T1 sequence (P20594 23-1047): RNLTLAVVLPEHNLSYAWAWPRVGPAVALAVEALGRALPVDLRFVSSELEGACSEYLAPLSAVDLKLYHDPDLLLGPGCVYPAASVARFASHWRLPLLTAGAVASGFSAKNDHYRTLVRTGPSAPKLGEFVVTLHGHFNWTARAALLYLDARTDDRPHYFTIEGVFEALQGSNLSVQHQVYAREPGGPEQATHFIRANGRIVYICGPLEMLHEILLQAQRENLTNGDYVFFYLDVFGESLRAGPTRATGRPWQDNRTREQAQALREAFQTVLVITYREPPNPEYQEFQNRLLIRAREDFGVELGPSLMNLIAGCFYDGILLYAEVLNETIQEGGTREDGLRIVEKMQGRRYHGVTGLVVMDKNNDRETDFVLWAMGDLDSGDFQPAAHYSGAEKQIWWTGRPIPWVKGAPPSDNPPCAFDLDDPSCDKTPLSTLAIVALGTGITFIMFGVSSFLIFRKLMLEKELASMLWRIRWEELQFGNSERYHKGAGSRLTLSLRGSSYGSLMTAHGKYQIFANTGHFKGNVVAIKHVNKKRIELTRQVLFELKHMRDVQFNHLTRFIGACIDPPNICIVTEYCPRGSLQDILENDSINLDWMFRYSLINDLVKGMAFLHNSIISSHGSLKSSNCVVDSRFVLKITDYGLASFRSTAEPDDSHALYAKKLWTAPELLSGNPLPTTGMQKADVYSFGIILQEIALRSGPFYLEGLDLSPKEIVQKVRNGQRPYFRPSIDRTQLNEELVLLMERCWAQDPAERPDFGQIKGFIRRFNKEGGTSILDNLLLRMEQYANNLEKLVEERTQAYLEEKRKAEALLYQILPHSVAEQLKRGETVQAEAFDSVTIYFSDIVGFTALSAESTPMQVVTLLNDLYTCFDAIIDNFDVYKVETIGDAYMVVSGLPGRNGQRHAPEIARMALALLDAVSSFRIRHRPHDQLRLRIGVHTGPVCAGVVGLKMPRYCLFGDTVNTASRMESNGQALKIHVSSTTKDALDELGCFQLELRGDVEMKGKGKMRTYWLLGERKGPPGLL
Assay: In vitro hNPR2 activity assay (cGMP GloSensor reporter, HEK293)
Format: cell-based
Settings: for EC50: 0% HSA, HEK293-hNPR2/GloSensor cells; for hNPR2 0% HSA. [EC50% rel CNP]: potency relative to CNP22 (0065)
How it was run: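 Potency is the EC50 from a four-parameter logistic fit, also expressed relative to the in-plate CNP22 control (×100), with at least two replicates. Compounds (ten concentrations, […], HSA-free diluent with 1% OVA, 0.01% Tween20) were incubated 30 min at 37 °C on HEK293 cells co-expressing hNPR2 and a GloSensor cGMP luciferase. Luminescence detected with Bright-Glo.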

| Structure (SMILES) | EC50 [nM] | hNPR2 0% HSA. [EC50% rel CNP] [%] |
| --- | --- | --- |
| CC[C@H](C)[C@@H]1NC(=O)[C@H](CCCNC(=N)N)NC(=O)[C@H](CCC(=O)O)NC(=O)[C@H](CC(C)C)NC(=O)[C@H](CCCCN)NC(=O)[C@H](CC(C)C)NC(=O)CNC(=O)[C@H](Cc2ccccc2)NC(=O)[C@@H](NC(=O)CNC(=O)[C@H](CCCCN)NC(=O)[C@H](CO)NC(=O)[C@H](CC(C)C)NC(=O)CNC(=O)[C@H](CCCCN)NC(=O)[C@H](CCCCN)NC(=O)[C@H](CCC(N)=O)NC(=O)[C@H](C)NC(=O)CNC(=O)[C@H](CCCCN)NC(=O)[C@H](Cc2ccc(O)cc2)NC(=O)[C@H](CCCCN)NC(=O)[C@H](CCCNC(=N)N)NC(=O)[C@H](C)NC(=O)COCCOCCNC(=O)COCCOCCNC(=O)CC[C@H](NC(=O)CCCCCCCCCCCCCCCCC(=O)O)C(=O)O)CSSC[C@@H](C(=O)O)NC(=O)CNC(=O)[C@H](CC(C)C)NC(=O)CNC(=O)[C@H](CO)NC(=O)[C@H](CC(C)C)NC(=O)[C@H](CO)NC(=O)CNC1=O [compound 0776] ({C18 diacid-γGlu-AEEA-AEEA}-ARKYKGAQKKGLSKGCFGLKLERIGSLSGLGC-OH; disulfide 16-32) | 0.58 | 33.2 |
| CC[C@H](C)[C@@H]1NC(=O)[C@H](CCCNC(=N)N)NC(=O)[C@H](CC(=O)O)NC(=O)[C@H](CC(C)C)NC(=O)[C@@H]2CCCN2C(=O)[C@H](CC(C)C)NC(=O)CNC(=O)[C@H](Cc2ccccc2)NC(=O)[C@@H](NC(=O)CNC(=O)[C@H](CCCCN)NC(=O)[C@H](CO)NC(=O)[C@H](CC(C)C)NC(=O)CNC(=O)[C@H](CCCCN)NC(=O)[C@H](CCCCN)NC(=O)[C@H](CCC(N)=O)NC(=O)[C@H](C)NC(=O)CNC(=O)[C@H](CCC(=O)O)NC(=O)[C@H](Cc2ccc(O)cc2)NC(=O)COCCOCCNC(=O)COCCOCCNC(=O)CC[C@H](NC(=O)CCCCCCCCCCCCCCCCC(=O)O)C(=O)O)CSSC[C@@H](C(=O)O)NC(=O)CNC(=O)[C@H](CC(C)C)NC(=O)CNC(=O)[C@H](CO)NC(=O)[C@H](CC(C)C)NC(=O)[C@H](CO)NC(=O)CNC1=O [compound 1225] ({C18 diacid-γGlu-AEEA-AEEA}-YEGAQKKGLSKGCFGLPLDRIGSLSGLGC-OH; disulfide 13-29) |  | 29.4 |
| CC[C@H](C)[C@@H]1NC(=O)[C@H](CCCNC(=N)N)NC(=O)[C@H](CC(=O)O)NC(=O)[C@H](CC(C)C)NC(=O)[C@@H]2CCCN2C(=O)[C@H](CC(C)C)NC(=O)CNC(=O)[C@H](Cc2ccccc2)NC(=O)[C@@H](NC(=O)CNC(=O)[C@H](CO)NC(=O)[C@H](CO)NC(=O)[C@H](CC(C)C)NC(=O)CNC(=O)[C@H](CCCCN)NC(=O)[C@H](CCCCN)NC(=O)[C@H](CCC(N)=O)NC(=O)[C@H](C)NC(=O)CNC(=O)[C@H](CCC(=O)O)NC(=O)[C@H](Cc2ccc(O)cc2)NC(=O)COCCOCCNC(=O)COCCOCCNC(=O)CC[C@H](NC(=O)CCCCCCCCCCCCCCCCC(=O)O)C(=O)O)CSSC[C@@H](C(=O)O)NC(=O)CNC(=O)[C@H](CC(C)C)NC(=O)CNC(=O)[C@H](CO)NC(=O)[C@H](CC(C)C)NC(=O)[C@H](CO)NC(=O)CNC1=O [compound 1227] ({C18 diacid-γGlu-AEEA-AEEA}-YEGAQKKGLSSGCFGLPLDRIGSLSGLGC-OH; disulfide 13-29) |  | 38.2 |
| CC[C@H](C)[C@@H]1NC(=O)[C@H](CCCNC(=N)N)NC(=O)[C@H](CC(=O)O)NC(=O)[C@H](CC(C)C)NC(=O)[C@@H]2CCCN2C(=O)[C@H](CC(C)C)NC(=O)CNC(=O)[C@H](Cc2ccccc2)NC(=O)[C@@H](NC(=O)CNC(=O)[C@H](CO)NC(=O)[C@H](CO)NC(=O)[C@H](CC(C)C)NC(=O)CNC(=O)[C@H](CCCCN)NC(=O)[C@H](CCCCN)NC(=O)[C@H](CCC(N)=O)NC(=O)[C@H](C)NC(=O)CNC(=O)[C@H](CCCCN)NC(=O)[C@H](Cc2ccc(O)cc2)NC(=O)COCCOCCNC(=O)COCCOCCNC(=O)CC[C@H](NC(=O)CCCCCCCCCCCCCCCCC(=O)O)C(=O)O)CSSC[C@@H](C(=O)O)NC(=O)CNC(=O)[C@H](CC(C)C)NC(=O)CNC(=O)[C@H](CO)NC(=O)[C@H](CC(C)C)NC(=O)[C@H](CO)NC(=O)CNC1=O [compound 1233] ({C18 diacid-γGlu-AEEA-AEEA}-YKGAQKKGLSSGCFGLPLDRIGSLSGLGC-OH; disulfide 13-29) |  | 49.7 |
| CC[C@H](C)[C@@H]1NC(=O)[C@H](CCCNC(=N)N)NC(=O)[C@H](CC(=O)O)NC(=O)[C@H](CC(C)C)NC(=O)[C@H](CCCCN)NC(=O)[C@H](CC(C)C)NC(=O)CNC(=O)[C@H](Cc2ccccc2)NC(=O)[C@@H](NC(=O)CNC(=O)[C@H](CCCCN)NC(=O)[C@H](CO)NC(=O)[C@H](CC(C)C)NC(=O)CNC(=O)[C@H](CCCCN)NC(=O)[C@H](CCCCN)NC(=O)[C@H](CCC(N)=O)NC(=O)[C@H](C)NC(=O)CNC(=O)[C@H](Cc2c[nH]cn2)NC(=O)[C@H](CCC(=O)O)NC(=O)COCCOCCNC(=O)COCCOCCNC(=O)CC[C@H](NC(=O)CCCCCCCCCCCCCCCCC(=O)O)C(=O)O)CSSC[C@@H](C(=O)O)NC(=O)CNC(=O)[C@H](CC(C)C)NC(=O)CNC(=O)[C@H](CO)NC(=O)[C@H](CC(C)C)NC(=O)[C@H](CO)NC(=O)CNC1=O [compound 1235] | 1.17 | 27.2 |
| CC[C@H](C)[C@@H]1NC(=O)[C@H](CCCNC(=N)N)NC(=O)[C@H](CC(=O)O)NC(=O)[C@H](CC(C)C)NC(=O)[C@@H]2CCCN2C(=O)[C@H](CC(C)C)NC(=O)CNC(=O)[C@H](Cc2ccccc2)NC(=O)[C@@H](NC(=O)CNC(=O)[C@H](CO)NC(=O)[C@H](CO)NC(=O)[C@H](CC(C)C)NC(=O)CNC(=O)[C@H](CCCCN)NC(=O)[C@H](CCCCN)NC(=O)[C@H](CCC(N)=O)NC(=O)[C@H](C)NC(=O)CNC(=O)[C@H](Cc2c[nH]cn2)NC(=O)[C@H](Cc2ccc(O)cc2)NC(=O)COCCOCCNC(=O)COCCOCCNC(=O)CC[C@H](NC(=O)CCCCCCCCCCCCCCCCC(=O)O)C(=O)O)CSSC[C@@H](C(=O)O)NC(=O)CNC(=O)[C@H](CC(C)C)NC(=O)CNC(=O)[C@H](CO)NC(=O)[C@H](CC(C)C)NC(=O)[C@H](CO)NC(=O)CNC1=O [compound 1241] ({C18 diacid-γGlu-AEEA-AEEA}-YHGAQKKGLSSGCFGLPLDRIGSLSGLGC-OH; disulfide 13-29) |  | 30.5 |
| CC[C@H](C)[C@@H]1NC(=O)[C@H](CCCNC(=N)N)NC(=O)[C@H](CC(=O)O)NC(=O)[C@H](CC(C)C)NC(=O)[C@@H]2CCCN2C(=O)[C@H](CC(C)C)NC(=O)CNC(=O)[C@H](Cc2ccccc2)NC(=O)[C@@H](NC(=O)CNC(=O)[C@H](CO)NC(=O)[C@H](CO)NC(=O)[C@@H](NC(=O)CNC(=O)[C@@H](NC(=O)[C@H](CCCCN)NC(=O)[C@H](CCC(N)=O)NC(=O)[C@H](C)NC(=O)CNC(=O)[C@H](Cc2c[nH]cn2)NC(=O)[C@H](Cc2ccc(O)cc2)NC(=O)COCCOCCNC(=O)COCCOCCNC(=O)CC[C@H](NC(=O)CCCCCCCCCCCCCCCCC(=O)O)C(=O)O)[C@@H](C)O)C(C)C)CSSC[C@@H](C(=O)O)NC(=O)CNC(=O)[C@H](CC(C)C)NC(=O)CNC(=O)[C@H](CO)NC(=O)[C@H](CC(C)C)NC(=O)[C@H](CO)NC(=O)CNC1=O [compound 1303] ({C18 diacid-γGlu-AEEA-AEEA}-YHGAQKTGVSSGCFGLPLDRIGSLSGLGC-OH; disulfide 13-29) |  | 25.5 |
